This passage reports IC50 and pKa results from ChEMBL document CHEMBL1151097, “Phenyl-glycinol based NK1 receptor antagonists towards the minimum pharmacophore” (Bioorg Med Chem Lett, 1995).

Data set [1] addresses Substance-P receptor (Homo sapiens, UniProt P25103). Description: Binding affinity to human Tachykinin receptor 1.
The target in data set [2] is Voltage-gated L-type calcium channel (Homo sapiens, UniProt Q13936+Q13698+Q01668+O60840). As to the kind of experiment: Inhibition of binding to L-type [Ca2+] channel. It is filed as protein assay.
Data set [3] is described as follows: pKa value was determined. It is filed as physicochemical.

Chain of Substance-P receptor (P25103 whole entry): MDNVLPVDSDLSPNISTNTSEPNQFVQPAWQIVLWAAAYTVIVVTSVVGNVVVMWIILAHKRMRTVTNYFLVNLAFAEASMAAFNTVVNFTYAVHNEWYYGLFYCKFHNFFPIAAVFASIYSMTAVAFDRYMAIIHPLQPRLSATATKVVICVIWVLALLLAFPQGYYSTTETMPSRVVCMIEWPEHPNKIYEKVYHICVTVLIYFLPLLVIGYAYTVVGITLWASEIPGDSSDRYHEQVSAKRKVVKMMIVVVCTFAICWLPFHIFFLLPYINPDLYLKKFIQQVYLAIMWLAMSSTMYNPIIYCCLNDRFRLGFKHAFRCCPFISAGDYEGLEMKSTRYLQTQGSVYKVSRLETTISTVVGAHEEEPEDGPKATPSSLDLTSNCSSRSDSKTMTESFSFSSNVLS

As for `COc1cc(C)cc(COC[C@@H](N)c2ccccc2)c1`, the IC50 in data set [1] stood at 135 nM. Still for that read-out and setting: under `Cc1cc(Br)cc(COC[C@@H](N)c2ccccc2)c1` stands 20 nM.

With `N[C@H](COCc1cc(C(F)(F)F)cc(C(F)(F)F)c1)c1ccccc1`, the concentration for half-maximal inhibition (IC50) is 13 nM in data set [1] and 580 nM in data set [2]. Moreover, the pKa in data set [3] turned out to be 7.93. Regarding `CC(N)(COCc1cc(C(F)(F)F)cc(C(F)(F)F)c1)c1ccccc1` (stereo not given), the IC50 in data set [1] was 30 nM. In the case of `CC(OCC(N)c1ccccc1)c1cc(C(F)(F)F)cc(C(F)(F)F)c1` (stereo not given), the IC50 in data set [1] was 4.3 nM.

On to `CN(CC(N)=O)[C@H](COCc1cc(C(F)(F)F)cc(C(F)(F)F)c1)c1ccccc1`, for which the IC50 is 5.8 nM in data set [1] and greater than 10000 nM in data set [2]. For `N[C@H](COCc1cc(Cl)cc(Cl)c1)c1ccccc1`, the IC50 in data set [1] is 49 nM. On to `CC(OCc1cc(C(F)(F)F)cc(C(F)(F)F)c1)C(N)c1ccccc1` (single isomer, unassigned; diastereomer B), for which the IC50 in data set [1] is 7 nM.

With `NC(=O)CN[C@H](COCc1cc(C(F)(F)F)cc(C(F)(F)F)c1)c1ccccc1`, the IC50 is 8 nM in data set [1] and 2300 nM in data set [2]. For the molecule `Cc1cc(COC[C@@H](N)c2ccccc2)cc(C(C)(C)C)c1`, the IC50 in data set [1] came to 13.7 nM. As for `CC(OCc1cc(C(F)(F)F)cc(C(F)(F)F)c1)C(N)c1ccccc1` (single isomer, unassigned; diastereomer A), the IC50 in data set [1] worked out at 95 nM.
